These results are taken from article PMC11503492, “Activity-Based DNA-Encoded Library Screening for Selective Inhibitors of Eukaryotic Translation” (ACS Central Science, 2024).

For experiment [1], the system named is PCSK9[1:33]-GFP translation. As to the kind of experiment: Microfluidic activity-based DEL screen in WG IVTT droplets, PCSK9[1:33]-GFP, hit k class by sequencing. Type of experiment: biochemical, wheat germ. Particulars: number of times hit structure observed on distinct beads, summed across PCSK9[1:33]-GFP screens; *** p < 0.001, NS not significant. Here is the method: The validated PF846-inspired library was screened to discover novel translation inhibitors. DEL beads were encapsulated in microfluidic droplets of WG IVTT and irradiated with UV in flow to liberate DEL members into the droplets. The photodosed droplets were incubated and sorted based on fluorescence.[25] PCSK9[1:33]-GFP was chosen as a proof-of-concept target, and PCSK9-FS[1:33]-GFP was used as a counter screen target to identify nonselective compounds. PC-HygB were mixed with DEL beads and screened in the microfluidic device for inhibitors of translation. […] Droplet generation, bead introduction, and library and control bead hit rate were uniform during the screen (Figure 3, bottom).
Hit collection DNA tags from the PCSK9[1:33]-GFP and PCSK9-FS[1:33]-GFP screens were sequenced to deduce the structures of molecules that inhibited PCSK9[1:33]- or PCSK9-FS[1:33]-GFP translation. Hit structure k class, the number of times a given hit structure is observed on distinct beads,[31] was summed across screens and visualized as a heat map (Figure 4A). […] The combined hit sets for the two templates contained 121 unique hits with k ≥ 17 across the two screening campaigns. The most frequently observed cycle 1 starter BBs were 1 and 2, which share an 8-methylisoquinoline moiety, but differ in the vector for cycle 2 carboxylic acid connection, and 3, which contains an N-methylazaindole moiety. The most frequently identified cycle 2 tails included carboxylic acids 4–7. […] Substituted pyrazole 6 and pyridyl-benzimidazole 7 also appeared frequently with the aforementioned starters. There were 5 hits that appeared with high k class in both PCSK9[1:33]-GFP and PCSK9[1:33]-FS-GFP screening campaigns.
319 the droplet experiment to homogenize the bead suspension. Syringes were connected to
320 fluidic inputs with microbore Tygon tubing (0.01” x 0.03” IC × OD). Droplet generation oil
321 (OIL1) was 1% picosurf in HFE. Spacing (OIL2) and pinning (OIL3) oils were neat HFE.
322 Assay reagents were driven by displacement syringe pumps (Legato 100, KD Scientific,
323 Holliston, MA) through the circuit. OIL2 and OIL3 were initially flowed (22 µL/min and
324 12 µL/min, respectively) and hit and waste shunt tubing were clamped to backfill the
325 circuit. Once the incubator was filled with oil, the hit and waste tubing were unclamped
326 and back shunts were clamped. AQ1, AQ2, and OIL1 flows were initiated (960 nL/min,
327 640 nL/min, and 1200 nL/min, respectively) and held constant during the screen. Once
328 droplet generation equilibrated (∼10 min), the main shunt was clamped and droplets
329 started to fill the incubator. When droplets filled the incubator and entered the sorting
330 region, data acquisition and screening was initiated.
331 The custom confocal LIF detection setup and LabView code were previously described.S3
332 Briefly, photon counting PMTs (H7828, Hamamatsu, Middlesex, NJ) were used to detect
333 droplet fluorescence emission using a custom two-channel (520 and 570 nm) confocal mi-
334 croscope with laser excitation (488 nm, 20 mW, OBIS-488 20LS, Coherent Inc., Santa Clara,
335 CA). A data acquisition board (DAQ, NI, USB-6341, National Instruments) was used to
336 digitize PMT signal, which was binned into counts, and in-house LabView code was used
337 to control acquisition and execute droplet sorting decisions. Signal was smoothed in real-
338 time using median-filter smoothing (width = 3). Droplets were identified by the 570 nm
339 channel signal and the maximum signal in the 520 nm channel (max = countsn-1 when
340 countsn <countsn-1) was set as the droplet peak value. A roaming sort threshold was
342 the 520 nm channel. The threshold was calculated as µ - 5σ, where µ andσ were the mean
343 and standard deviation of the previous 300 droplets’ fluorescence values, respectively. Hit
344 droplets were not included in the calculation of droplet mean and standard deviation. A […]

For experiment [2], the system named is PCSK9[1:33]-GFP translation from mRNA. Description: IVTT activity assay of PCSK9[1:33]-GFP initiated with RNA template. Format: biochemical. On the procedure: Figure S10. Activity of compounds 8 and 9 on transcription. (A) Screening hits 8 and 9 were analyzed in dose-response IVTT activity assays of PCSK9[1:33]-GFP initiated with DNA (black) and RNA (gray) template. (B) Products of PCSK9[1:33]-GFP T7 transcription reactions incubated with DMSO, screening hits 8 and 9, or PF846 were visualized on a 1.5% agarose gel
(1 picture or pasted object on this page, not shown here)

Experiment [3] relates to PCSK9-FS[1:33]-GFP translation. Description: WG IVTT microplate activity assay, PCSK9-FS[1:33]-GFP frameshift counter template. Format: biochemical, wheat germ. Particulars: for IC50: PCSK9-FS[1:33]-GFP template, triplicate, undetectable IC50 marked >300; for activity on PCSK9-FS[1:33]-GFP translation (in words): frameshift control. From the text:
A commercially available wheat germ lysate (WG) IVTT system was employed to assay translation inhibition. Translation activity was detected via a GFP reporter, and the assay was miniaturized to picoliter-scale microfluidic droplets (Figure 1A,B). […] PCSK9 and RPL27 were truncated to the first 33 and 32 amino acids, respectively (PCSK9[1:33] and RPL27[1:32]). The sequences contain distinct PF846 stall sites and were both fused to a GFP reporter. The GFP reporter and a frameshift mutant of PCSK9[1:33] (PCSK9-FS[1:33]), which mutates the nascent chain sequence while maintaining a nearly identical mRNA sequence, were included as negative controls.[13] […] Sequence sensitivity was further confirmed by an N-terminal deletion series of PCSK9[1:33]-GFP; deletion of N-terminal residues increasingly ablated PCSK9[1:33]-GFP translation sensitivity to PF846 (Figure 1D). The WG IVTT assay was miniaturized using a previously described microfluidic circuit modified for longer incubation times (Figure S1)[27] using PF846 as a positive control compound, and assay statistical quality was calculated (Z′=0.7) (Figure 1E). To confirm detection of translation inhibition from library beads, hygromycin B, a nonselective aminoglycoside translation inhibitor, was coupled to beads displaying a photocleavable linker (PC-HygB). UV irradiation releases hygromycin from the bead, allowing it to interact with the WG IVTT assay in the droplet. PC-HygB bead photocleavage supernatant inhibited PCSK9[1:33]-GFP translation both in a microplate assay and in microfluidic droplets (Figure 1F,G, S2). Assay statistical quality using PC-HygB positive control beads was similarly calculated (Z′ = 0.75, Figure 1H). […]
436 Microplate IVTT Assays
437 Wheat germ lysate IVTT plate assays were prepared as 5 µL reactions. Wheat germ lysate
438 (3 µL) was added to test compound or vehicle control (1 µL) in a 384-well black microplate
439 and the reaction was incubated (10 min, RT). Template (1 µL) was added and reaction
440 progress was immediately monitored (λex = 480 nm, λem = 530 nm, 27 °C, 2 h). Rela-
441 tive activity was calculated using the slope of fluorescence increase over time (at 15–30
442 min post reaction initiation) for compound samples relative to that of the DMSO vehicle
443 control. All microplate experiments contained 25 ng/µL plasmid, except for assays with
445 respectively. HeLa lysate IVTT plate assays were prepared as 5.5 µL reactions. […]

`Cc1cccc2ccnc(N(C(=O)[C@H]3CCCN(C(=O)c4cccc5c(C#N)c[nH]c45)C3)[C@@H]3CCCNC3)c12` [Compound 8]: the “k class PCSK9” value in experiment [1] was 47. Besides, the “activity when translation initiated from mRNA rather than plasmid DNA (in words)” value in experiment [2] was “active”. Further, in experiment [3], the IC50 was over 300 µM and the “activity on PCSK9-FS[1:33]-GFP translation (in words)” value is “inactive”.
In the same order, the values of `Cc1cccc2ccnc(N(C(=O)C3CCN(C(=O)c4cccc5c(C#N)c[nH]c45)CC3)[C@@H]3CCCNC3)c12` [Compound 9] are 28, “inactive”, 24 ± 0.4 µM and “similarly active on both templates”.
